Measurements as given in patent US20240207427A1, “SELECTIVE DRUG RELEASE FROM INTERNALIZED CONJUGATES OF BIOLOGICALLY ACTIVE COMPOUNDS” (priority 2021, published 2024).
Like-named read-outs stand apart in the source and are kept apart here.

How the values were obtained:
Assay type in all cases: cell-based
[1] = test system: renal carcinoma cells (786-O); assay: In vitro potency (CellTiter-Glo, 96 h), 786-O; settings: Homo sapiens, 786-0, 96 h, CPT free drugs, renal carcinoma cells 786-O, 96 h, CellTiter-Glo
Description: (§1) In vitro potency was assessed on multiple cancer cell lines. All cell lines were authenticated by STR profiling at IDEXX Bioresearch and cultured for no more than 2 months after resuscitation. Cells cultured in log-phase growth were seeded for 24 hours in 96-well plates containing […] RPMI 1640 supplemented with 20% FBS. Serial dilutions of antibody-drug conjugates in cell culture media were prepared at 4× working concentrations, and 50 μL of each dilution was added to the 96-well plates. Following addition of test articles, cells were incubated with test articles for 4 days at 37 0° C. After 96 hours, growth inhibition was assessed by CellTiterGlo® (Promega, Madison, WI) and luminescence was measured on a plate reader.
(§2) In Table 7, IC50 values for ADCs are given in ng/mL. Cell viability was determined by CellTiter-Glo staining after 96 h exposure to ADC. ND=Not Determined. Ag2 is an antibody targeting a ubiquitous and readily internalizable antigen. The cancer cell lines tested are renal carcinoma cells (786-0), melanoma cells (A2058), pancreatic cancer cells (BxPC3), non-small-cell lung cancer cells (Calu1), anaplastic large cell lymphoma cells (DEL, DELBVR, Karpas299), Hodgkin's lymphoma cells (L540cy), (Ls174T), breast cancer cells (MDA-MB-231), acute myeloid leukemia cells (MOLM-13), and B-lymphocyte cancer cells (SU-DHL4).
as §1, with “FBS.” for “FBS. Serial dilutions of antibody-drug conjugates in cell culture media were prepared at 4× working concentrations, and 50 μL of each dilution was added to the 96-well plates.”
(§3) Cell viability was determined by CellTiter-Glo staining after 96 h exposure to the compound. ND=Not Determined. The cancer cell lines tested are renal carcinoma cells (786-0), melanoma cells (A2058), pancreatic cancer cells (BxPC3), non-small-cell lung cancer cells (Calu1), anaplastic large cell lymphoma cells (DEL, DELBVR, Karpas299), Hodgkin's lymphoma cells (L540cy), (Ls 174T), breast cancer cells (MDA-MB-231), acute myeloid leukemia cells (MOLM-13), B-lymphocyte cancer cells (SU-DHL4), multiple myeloma cells (MM.1R), (U266), and melanoma cells (SK-MEL-5).
as §1, with “37°” for “37 0°”
(§4) In the following Tables IC50 values for ADCs and CPT free drugs are given in ng/mL and nmol/L concentrations. Cell viability was determined by CellTiter-Glo staining after 96 h exposure to ADC or CPT free drug.
(§5) Cell viability was determined by CellTiter-Glo staining after 96 h exposure to ADC. ND=Not Determined.

[2] = test system: pancreatic cancer cells (BxPC3); assay: In vitro potency (CellTiter-Glo, 96 h), BxPC3; settings: Homo sapiens, BXPC-3, 96 h, CPT free drugs, pancreatic cancer cells BxPC3, 96 h, CellTiter-Glo
Description: as §1, §2
as §1, with “FBS.” for “FBS. Serial dilutions of antibody-drug conjugates in cell culture media were prepared at 4× working concentrations, and 50 μL of each dilution was added to the 96-well plates.”
as §3
as §1, with “37°” for “37 0°”
as §4, §5

[3] = test system: anaplastic large cell lymphoma cells (DEL); assay: In vitro potency (CellTiter-Glo, 96 h), DEL
Description: as §1, §2
as §1, with “FBS.” for “FBS. Serial dilutions of antibody-drug conjugates in cell culture media were prepared at 4× working concentrations, and 50 μL of each dilution was added to the 96-well plates.”
as §3
as §1, with “37°” for “37 0°”
as §4, §5

[4] = test system: anaplastic large cell lymphoma cells (DELBVR); assay: In vitro potency (CellTiter-Glo, 96 h), DELBVR
Description: as §1, §2
as §1, with “FBS.” for “FBS. Serial dilutions of antibody-drug conjugates in cell culture media were prepared at 4× working concentrations, and 50 μL of each dilution was added to the 96-well plates.”
as §3
as §1, with “37°” for “37 0°”
as §4, §5

[5] = test system: anaplastic large cell lymphoma cells (Karpas299); assay: In vitro potency (CellTiter-Glo, 96 h), Karpas299; settings: Homo sapiens, KARPAS-299, 96 h, CPT free drugs, anaplastic large cell lymphoma cells Karpas299, 96 h, CellTiter-Glo
Description: as §1, §2
as §1, with “FBS.” for “FBS. Serial dilutions of antibody-drug conjugates in cell culture media were prepared at 4× working concentrations, and 50 μL of each dilution was added to the 96-well plates.”
as §3
as §1, with “37°” for “37 0°”
as §4, §5

[6] = test system: Hodgkin's lymphoma cells (L540cy); assay: In vitro potency (CellTiter-Glo, 96 h), L540cy
Description: as §1, §2
as §1, with “FBS.” for “FBS. Serial dilutions of antibody-drug conjugates in cell culture media were prepared at 4× working concentrations, and 50 μL of each dilution was added to the 96-well plates.”
as §3
as §1, with “37°” for “37 0°”
as §4, §5

Ls174T cells = assay: In vitro potency (CellTiter-Glo, 96 h), Ls174T; settings: Homo sapiens, LS174T, 96 h, CPT free drugs, Ls174T cells, 96 h, CellTiter-Glo
Description: as §1, §2
as §1, with “FBS.” for “FBS. Serial dilutions of antibody-drug conjugates in cell culture media were prepared at 4× working concentrations, and 50 μL of each dilution was added to the 96-well plates.”
as §3
as §1, with “37°” for “37 0°”
as §4, §5

[7] = test system: breast cancer cells (MDA-MB-231); assay: In vitro potency (CellTiter-Glo, 96 h), MDA-MB-231; settings: Homo sapiens, MDA-MB-231, 96 h, CPT free drugs, breast cancer cells MDA-MB-231, 96 h, CellTiter-Glo
Description: as §1, §2
as §1, with “FBS.” for “FBS. Serial dilutions of antibody-drug conjugates in cell culture media were prepared at 4× working concentrations, and 50 μL of each dilution was added to the 96-well plates.”
as §3
as §1, with “37°” for “37 0°”
as §4, §5

[8] = test system: acute myeloid leukemia cells (MOLM-13); assay: In vitro potency (CellTiter-Glo, 96 h), MOLM-13; settings: Homo sapiens, MOLM-13, 96 h, CPT free drugs, acute myeloid leukemia cells MOLM-13, 96 h, CellTiter-Glo
Description: as §1, §2
as §1, with “FBS.” for “FBS. Serial dilutions of antibody-drug conjugates in cell culture media were prepared at 4× working concentrations, and 50 μL of each dilution was added to the 96-well plates.”
as §3
as §1, with “37°” for “37 0°”
as §4, §5

[9] = test system: B-lymphocyte cancer cells (SU-DHL4); assay: In vitro potency (CellTiter-Glo, 96 h), SU-DHL-4; settings: Homo sapiens, SU-DHL-4, 96 h, CPT free drugs, B-lymphocyte cancer cells SU-DHL4, 96 h, CellTiter-Glo
Description: as §1, §2
as §1, with “FBS.” for “FBS. Serial dilutions of antibody-drug conjugates in cell culture media were prepared at 4× working concentrations, and 50 μL of each dilution was added to the 96-well plates.”
as §3
as §1, with “37°” for “37 0°”
as §4, §5

[10] = read-out: DEL IC50, Table 29, CPT free drugs, anaplastic large cell lymphoma cells DEL, CellTiter-Glo
[11] = read-out: DELBVR IC50, Table 29, CPT free drugs, anaplastic large cell lymphoma cells DELBVR, CellTiter-Glo
[12] = read-out: Karpas299 IC50, Table 29
[13] = read-out: L540cy IC50, Table 29, CPT free drugs, Hodgkin's lymphoma cells L540cy, CellTiter-Glo
[14] = read-out: Ls174T IC50, Table 29
[15] = read-out: MDAMB231 IC50, Table 29
[16] = read-out: MOLM-13 IC50, Table 29
[17] = read-out: SU-DHL-4 IC50, Table 29

Structure (SMILES) | IC50 ([1]; read-out: 786-O IC50, Table 29) | IC50 ([2]; read-out: BxPC3 IC50, Table 29) | IC50 [3, 10] | IC50 [4, 11] | IC50 [5, 12] | IC50 [6, 13] | IC50 (Ls174T cells; [14]) | IC50 [7, 15] | IC50 [8, 16] | IC50 [9, 17] | IC50 ([1]; read-out: 786-O IC50, Table 28) | IC50 ([2]; read-out: BxPC3 IC50, Table 28) | IC50 ([3]; read-out: DEL IC50, Table 28, CPT free drugs, anaplastic large cell lymphoma cells DEL, CellTiter-Glo) | IC50 ([4]; read-out: DELBVR IC50, Table 28, CPT free drugs, anaplastic large cell lymphoma cells DELBVR, CellTiter-Glo) | IC50 ([5]; read-out: Karpas299 IC50, Table 28) | IC50 ([6]; read-out: L540cy IC50, Table 28, CPT free drugs, Hodgkin's lymphoma cells L540cy, CellTiter-Glo) | IC50 (Ls174T cells; read-out: Ls174T IC50, Table 28) | IC50 ([7]; read-out: MDAMB231 IC50, Table 28) | IC50 ([8]; read-out: MOLM-13 IC50, Table 28) | IC50 ([9]; read-out: SU-DHL-4 IC50, Table 28)
CC[C@@]1(O)C(=O)OCc2c1cc1n(c2=O)Cc2c-1nc1cc3c(cc1c2CNCCN1CCNCC1)OCO3 [Compound 8b] | 102 nM | 51 nM | 8 nM | 13 nM | 62 nM | 56 nM | 111 nM | 260 nM | 91 nM | 17 nM |  |  |  |  |  |  |  |  |  | 
CC[C@@]1(O)C(=O)OCc2c1cc1n(c2=O)Cc2c-1nc1cc3c(cc1c2CN1CCN(CCN)CC1)OCO3 [Compound 8c] | 27 nM | 14 nM | 3 nM | 4 nM | 28 nM | 14 nM | 32 nM | 57 nM | 69 nM | 7 nM |  |  |  |  |  |  |  |  |  | 
CC[C@@]1(O)C(=O)OCc2c1cc1n(c2=O)Cc2c-1nc1cc3c(cc1c2CNC1CCN(C)CC1)OCO3 [Compound 7w] | 15 nM | 13 nM | 2 nM | 2 nM | 8 nM | 6 nM | 16 nM | 26 nM | 26 nM | 6 nM |  |  |  |  |  |  |  |  |  | 
CC[C@@]1(O)C(=O)OCc2c1cc1n(c2=O)Cc2c-1nc1cc3c(cc1c2CNCCCN1CCNCC1)OCO3 [Compound 8d] | 15 nM | 14 nM | 2 nM | 2 nM | 9 nM | 6 nM | 19 nM | 25 nM | 37 nM | 6 nM |  |  |  |  |  |  |  |  |  | 
CC[C@@]1(O)C(=O)OCc2c1cc1n(c2=O)Cc2c-1nc1cc3c(cc1c2CNC(=O)CN)CCO3 [Compound 13] |  |  |  |  |  |  |  |  |  |  | 139 nM | 94 nM | 8 nM | 21 nM | 126 nM | 45 nM | 195 nM | 177 nM | 88 nM | 18 nM
